Measured values published in ChEMBL document CHEMBL1201862, “PubChem BioAssay data set” (2004).
Active and inactive are the calls of the source.

How the values were obtained:
[1] = target: T1, Serine/threonine-protein phosphatase (Candida dubliniensis (strain CD36 / CBS 7987 / NCPF 3949 / NRRLY-17841) (Yeast), UniProt B9W6M3); assay: blockers of CaCl2-induced CDRE-lacZ signaling – S. cerevisiae, luminescence, secondary, dose response (AID 2388); format: functional, cell-based;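 note: yeast reporter cells carrying a calcineurin-responsive lacZ construct stimulated with calcium chloride; luminescent beta-galactosidase reporter signal in whole cells rather than isolated phosphatase activity; potency for inhibition where a drop in reporter signal means calcineurin blockade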
T1 sequence (B9W6M3 whole entry): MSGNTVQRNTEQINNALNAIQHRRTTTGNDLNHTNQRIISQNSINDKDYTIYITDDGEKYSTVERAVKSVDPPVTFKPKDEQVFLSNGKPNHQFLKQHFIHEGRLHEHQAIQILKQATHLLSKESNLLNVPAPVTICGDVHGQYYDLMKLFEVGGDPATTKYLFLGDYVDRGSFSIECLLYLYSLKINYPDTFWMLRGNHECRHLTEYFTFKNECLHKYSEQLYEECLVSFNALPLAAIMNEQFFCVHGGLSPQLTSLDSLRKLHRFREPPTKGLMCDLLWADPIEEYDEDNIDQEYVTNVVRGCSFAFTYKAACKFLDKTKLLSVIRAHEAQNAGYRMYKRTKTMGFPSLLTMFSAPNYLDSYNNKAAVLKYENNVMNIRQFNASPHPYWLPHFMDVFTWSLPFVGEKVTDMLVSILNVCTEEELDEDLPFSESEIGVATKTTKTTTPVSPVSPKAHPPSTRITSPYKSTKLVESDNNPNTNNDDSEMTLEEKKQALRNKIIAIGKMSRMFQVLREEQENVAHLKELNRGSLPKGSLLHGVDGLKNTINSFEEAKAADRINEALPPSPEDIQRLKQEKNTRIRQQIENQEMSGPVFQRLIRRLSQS

[2] = fluconazole-exposed Candida albicans growth modulators – fluorescence, retest, confirmation (AID 2467); format: functional, cell-based
[3] = test system: Streptococcus; assay: GAS UMAA2166 growth inhibition – luminescence, BacTiterGlo, counter-screen for streptokinase expression inhibitor project, dose response (AID 1915); format: functional, organism-based;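 note: potency for reduction of bacterial viability or growth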
[4] = target: Exodeoxyribonuclease V (Escherichia coli (strain K12), UniProt P04993+P07648+P08394); assay: RecBCD inhibition via phage-restricted bacterial growth – absorbance, V66 E. coli, mutant T4 phage, counter-screen for AddAB inhibitor project, dose response (AID 492957); format: functional, cell-based, Escherichia coli str. K-12 substr. MG1655
[5] = Counterscreen for AddAB inhibitors: absorbance-based bacterial cell-based high throughput dose response assay for inhibitors of bacterial viability. [Related pubchem assays (depositor defined):AID435030, AID449728, AID449731, AID488942, AID488955, AID488956]; format: functional
[6] = target: Luciferin 4-monooxygenase (Photinus pyralis, UniProt P08659); assay: Counter Screen for Luciferase-based Assay Positives. [Related pubchem assays: 620, 618, 411 ]
[7] = target: Estrogen receptor beta (Homo sapiens, UniProt Q92731); assay: blockers of SRC-3 recruitment to ERβ – biochemical, ELISA, streptavidin-HRP readout, orthogonal assay, confirmation (AID 1060)
[8] = target: T2, Estrogen receptor (Homo sapiens, UniProt P03372);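 note: potency for inhibiting coactivator peptide recruitment to the receptor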
T2 sequence (P03372 whole entry): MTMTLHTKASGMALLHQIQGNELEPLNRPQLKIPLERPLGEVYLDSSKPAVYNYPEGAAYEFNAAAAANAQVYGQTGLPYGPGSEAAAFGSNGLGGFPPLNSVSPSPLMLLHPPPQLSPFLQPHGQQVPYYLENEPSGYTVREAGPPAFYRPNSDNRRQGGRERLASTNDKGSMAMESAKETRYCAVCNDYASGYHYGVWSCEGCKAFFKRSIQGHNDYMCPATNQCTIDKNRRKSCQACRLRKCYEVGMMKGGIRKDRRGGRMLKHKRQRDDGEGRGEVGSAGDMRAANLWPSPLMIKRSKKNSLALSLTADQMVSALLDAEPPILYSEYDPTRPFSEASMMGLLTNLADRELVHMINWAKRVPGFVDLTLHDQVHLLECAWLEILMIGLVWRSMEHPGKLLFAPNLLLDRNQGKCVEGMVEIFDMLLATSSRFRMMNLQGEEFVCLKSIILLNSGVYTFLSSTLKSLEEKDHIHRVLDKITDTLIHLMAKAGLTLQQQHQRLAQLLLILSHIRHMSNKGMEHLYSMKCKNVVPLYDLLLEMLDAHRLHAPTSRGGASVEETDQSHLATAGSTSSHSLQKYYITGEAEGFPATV

[9] = cells
[10] = target: Death-associated protein kinase 3 (Homo sapiens, UniProt O43293); format: functional;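 note: measured as one member of a kinome-wide profiling panel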
[11] = target: Dual specificity protein kinase CLK4 (Homo sapiens, UniProt Q9HAZ1); format: functional
[12] = target: cAMP-dependent protein kinase catalytic subunit PRKX (Homo sapiens, UniProt P51817); format: functional
[13] = target: Cyclin-dependent kinase 7 (Homo sapiens, UniProt P50613); format: functional;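 note: value comes from a kinome-wide kinase profiling panel in which CDK7 is one member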
[14] = target: cAMP-dependent protein kinase catalytic subunit alpha (Homo sapiens, UniProt P17612); format: functional
[15] = target: Dual specificity protein kinase CLK2 (Homo sapiens, UniProt P49760); format: functional
[16] = target: Hepatocyte growth factor receptor (Homo sapiens, UniProt P08581); format: functional;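 note: kinase panel profiling across the kinome, with MET as the panel member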
[17] = target: Dual specificity mitogen-activated protein kinase kinase 2 (Homo sapiens, UniProt P36507); assay: Navigating the Kinome. Panel member name: MAP2K2; format: functional
[18] = target: Mitogen-activated protein kinase 14 (Homo sapiens, UniProt Q16539); format: functional;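 note: part of a kinome-wide panel, MAPK14 entry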
[19] = target: Tyrosine-protein kinase receptor TYRO3 (Homo sapiens, UniProt Q06418); format: functional;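 note: TYRO3 value obtained as one member of a kinome-wide profiling panel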
[20] = target: Proto-oncogene tyrosine-protein kinase receptor Ret (Homo sapiens, UniProt P07949); format: functional;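 note: measured within a kinome-wide profiling panel, RET as the panel member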
[21] = target: Platelet-derived growth factor receptor alpha (Homo sapiens, UniProt P16234); assay: Navigating the Kinome. Panel member name: PDGFRA; format: functional
[22] = target: Cyclin-dependent kinase 5 (Homo sapiens, UniProt Q00535); format: functional;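 note: CDK5 measured as one member of a kinase profiling panel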
[23] = target: Leucine-rich repeat serine/threonine-protein kinase 2 (Homo sapiens, UniProt Q5S007); format: functional;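 note: value from a broad kinome-wide panel profiling study in which LRRK2 was one of the kinases tested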
[24] = target: Aurora kinase A (Homo sapiens, UniProt O14965); format: functional;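 note: value from the Navigating the Kinome kinase panel profiling, panel entry STK6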
[25] = target: Receptor-type tyrosine-protein kinase FLT3 (Homo sapiens, UniProt P36888); format: functional;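 note: FLT3 was tested as one member of a kinome-wide kinase panel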
[26] = target: BDNF/NT-3 growth factors receptor (Homo sapiens, UniProt Q16620); format: functional;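 note: NTRK2 measured as one member of a broad kinome-wide kinase profiling panel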
[27] = target: Calcium/calmodulin-dependent protein kinase type II subunit alpha (Homo sapiens, UniProt Q9UQM7); assay: Navigating the Kinome. Panel member name: CAMK2A; format: functional

Chain of Leucine-rich repeat serine/threonine-protein kinase 2 (Q5S007 whole entry): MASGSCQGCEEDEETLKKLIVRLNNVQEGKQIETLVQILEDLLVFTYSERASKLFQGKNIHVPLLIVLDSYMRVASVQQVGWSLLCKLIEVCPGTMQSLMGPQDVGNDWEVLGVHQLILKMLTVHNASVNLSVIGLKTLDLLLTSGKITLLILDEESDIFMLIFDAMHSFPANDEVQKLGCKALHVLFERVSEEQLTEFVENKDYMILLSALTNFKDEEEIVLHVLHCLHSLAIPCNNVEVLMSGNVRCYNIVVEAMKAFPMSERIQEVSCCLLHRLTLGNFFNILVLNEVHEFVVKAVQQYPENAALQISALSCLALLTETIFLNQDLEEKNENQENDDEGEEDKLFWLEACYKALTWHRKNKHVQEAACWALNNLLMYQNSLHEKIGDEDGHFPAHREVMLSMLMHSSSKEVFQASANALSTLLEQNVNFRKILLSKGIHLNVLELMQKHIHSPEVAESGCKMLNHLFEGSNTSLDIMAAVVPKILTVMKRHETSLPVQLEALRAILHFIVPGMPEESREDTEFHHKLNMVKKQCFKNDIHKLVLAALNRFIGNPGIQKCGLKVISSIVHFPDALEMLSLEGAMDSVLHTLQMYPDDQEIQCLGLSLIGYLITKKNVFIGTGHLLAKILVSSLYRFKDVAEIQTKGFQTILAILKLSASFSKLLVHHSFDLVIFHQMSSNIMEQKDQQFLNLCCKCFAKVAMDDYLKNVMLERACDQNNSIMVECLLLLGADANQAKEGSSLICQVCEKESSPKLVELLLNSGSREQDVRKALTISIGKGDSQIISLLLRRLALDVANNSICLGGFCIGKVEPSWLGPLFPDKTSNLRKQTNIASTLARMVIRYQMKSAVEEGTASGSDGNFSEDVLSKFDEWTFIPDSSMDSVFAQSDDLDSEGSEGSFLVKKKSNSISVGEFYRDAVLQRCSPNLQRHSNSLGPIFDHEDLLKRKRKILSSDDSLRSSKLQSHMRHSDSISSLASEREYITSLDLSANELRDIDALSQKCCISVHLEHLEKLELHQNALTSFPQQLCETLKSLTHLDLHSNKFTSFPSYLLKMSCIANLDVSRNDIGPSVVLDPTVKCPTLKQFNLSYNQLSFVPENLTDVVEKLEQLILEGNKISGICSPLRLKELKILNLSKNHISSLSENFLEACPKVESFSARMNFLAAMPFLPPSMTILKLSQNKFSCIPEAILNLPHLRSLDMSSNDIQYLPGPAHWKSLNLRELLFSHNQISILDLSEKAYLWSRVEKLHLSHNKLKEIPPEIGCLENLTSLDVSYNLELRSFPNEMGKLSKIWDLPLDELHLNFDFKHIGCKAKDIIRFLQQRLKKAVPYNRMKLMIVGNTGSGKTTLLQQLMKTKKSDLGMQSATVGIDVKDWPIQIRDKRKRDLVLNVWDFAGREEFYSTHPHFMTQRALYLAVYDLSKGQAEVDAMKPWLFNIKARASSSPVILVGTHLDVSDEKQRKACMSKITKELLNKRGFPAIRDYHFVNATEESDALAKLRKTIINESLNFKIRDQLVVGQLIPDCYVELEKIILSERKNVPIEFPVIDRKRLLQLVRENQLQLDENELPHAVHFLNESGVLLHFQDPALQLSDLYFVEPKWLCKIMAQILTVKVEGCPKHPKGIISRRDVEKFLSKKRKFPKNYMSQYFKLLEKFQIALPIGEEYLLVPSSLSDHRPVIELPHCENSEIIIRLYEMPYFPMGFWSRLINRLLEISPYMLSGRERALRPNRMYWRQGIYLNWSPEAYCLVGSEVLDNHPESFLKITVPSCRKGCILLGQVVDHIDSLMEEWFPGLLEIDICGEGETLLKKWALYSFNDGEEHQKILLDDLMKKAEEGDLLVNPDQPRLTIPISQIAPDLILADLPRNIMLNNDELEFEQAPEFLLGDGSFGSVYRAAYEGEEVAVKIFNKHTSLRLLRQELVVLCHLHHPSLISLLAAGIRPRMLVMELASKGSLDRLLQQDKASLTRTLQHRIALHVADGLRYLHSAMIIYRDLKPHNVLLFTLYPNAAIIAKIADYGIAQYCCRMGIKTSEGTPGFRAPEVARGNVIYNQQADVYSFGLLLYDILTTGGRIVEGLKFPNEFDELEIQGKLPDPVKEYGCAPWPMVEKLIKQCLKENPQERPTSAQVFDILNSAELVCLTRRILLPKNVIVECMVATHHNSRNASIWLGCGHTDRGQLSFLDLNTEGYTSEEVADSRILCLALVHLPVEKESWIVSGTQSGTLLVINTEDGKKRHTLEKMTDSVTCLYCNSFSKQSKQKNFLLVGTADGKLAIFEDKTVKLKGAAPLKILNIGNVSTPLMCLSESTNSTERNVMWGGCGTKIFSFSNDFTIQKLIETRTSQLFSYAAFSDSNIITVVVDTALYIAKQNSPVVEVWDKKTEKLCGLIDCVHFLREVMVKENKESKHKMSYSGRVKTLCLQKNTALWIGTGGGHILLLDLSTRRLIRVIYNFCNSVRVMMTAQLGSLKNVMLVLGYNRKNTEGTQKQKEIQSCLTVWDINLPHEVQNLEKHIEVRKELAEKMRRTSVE
Chain of Tyrosine-protein kinase receptor TYRO3 (Q06418 whole entry): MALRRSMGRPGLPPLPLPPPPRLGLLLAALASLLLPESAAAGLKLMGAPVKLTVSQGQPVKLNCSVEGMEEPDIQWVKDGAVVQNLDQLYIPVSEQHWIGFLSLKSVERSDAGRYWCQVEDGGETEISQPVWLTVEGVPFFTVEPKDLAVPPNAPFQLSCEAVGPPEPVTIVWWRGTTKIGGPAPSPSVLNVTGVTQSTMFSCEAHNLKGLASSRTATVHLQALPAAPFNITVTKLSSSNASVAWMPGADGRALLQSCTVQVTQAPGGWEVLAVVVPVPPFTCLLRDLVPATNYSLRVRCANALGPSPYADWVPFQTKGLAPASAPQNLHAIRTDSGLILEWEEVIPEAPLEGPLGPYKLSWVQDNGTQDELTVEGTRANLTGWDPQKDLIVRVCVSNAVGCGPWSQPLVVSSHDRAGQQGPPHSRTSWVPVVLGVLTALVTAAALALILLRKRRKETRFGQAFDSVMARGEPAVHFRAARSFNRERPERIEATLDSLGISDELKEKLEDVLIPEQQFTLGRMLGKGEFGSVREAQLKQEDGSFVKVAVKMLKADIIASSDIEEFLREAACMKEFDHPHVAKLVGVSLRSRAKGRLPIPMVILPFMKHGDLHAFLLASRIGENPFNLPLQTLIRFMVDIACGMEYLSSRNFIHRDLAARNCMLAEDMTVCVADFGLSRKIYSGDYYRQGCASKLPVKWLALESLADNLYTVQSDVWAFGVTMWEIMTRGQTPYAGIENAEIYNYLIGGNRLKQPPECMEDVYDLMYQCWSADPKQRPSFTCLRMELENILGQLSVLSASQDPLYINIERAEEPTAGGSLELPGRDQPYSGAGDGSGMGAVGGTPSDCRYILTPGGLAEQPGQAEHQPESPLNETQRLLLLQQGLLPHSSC
Chain of Cyclin-dependent kinase 7 (P50613 whole entry): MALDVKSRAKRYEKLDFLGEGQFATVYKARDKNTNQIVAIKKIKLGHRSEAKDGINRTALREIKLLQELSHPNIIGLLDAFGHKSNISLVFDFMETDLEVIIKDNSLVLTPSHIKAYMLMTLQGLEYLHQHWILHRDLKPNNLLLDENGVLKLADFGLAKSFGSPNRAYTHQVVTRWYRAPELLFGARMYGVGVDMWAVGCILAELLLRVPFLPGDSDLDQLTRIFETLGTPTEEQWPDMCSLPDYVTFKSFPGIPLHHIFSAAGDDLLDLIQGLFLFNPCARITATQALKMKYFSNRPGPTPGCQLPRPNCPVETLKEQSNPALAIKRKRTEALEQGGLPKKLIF
Chain of Receptor-type tyrosine-protein kinase FLT3 (P36888 whole entry): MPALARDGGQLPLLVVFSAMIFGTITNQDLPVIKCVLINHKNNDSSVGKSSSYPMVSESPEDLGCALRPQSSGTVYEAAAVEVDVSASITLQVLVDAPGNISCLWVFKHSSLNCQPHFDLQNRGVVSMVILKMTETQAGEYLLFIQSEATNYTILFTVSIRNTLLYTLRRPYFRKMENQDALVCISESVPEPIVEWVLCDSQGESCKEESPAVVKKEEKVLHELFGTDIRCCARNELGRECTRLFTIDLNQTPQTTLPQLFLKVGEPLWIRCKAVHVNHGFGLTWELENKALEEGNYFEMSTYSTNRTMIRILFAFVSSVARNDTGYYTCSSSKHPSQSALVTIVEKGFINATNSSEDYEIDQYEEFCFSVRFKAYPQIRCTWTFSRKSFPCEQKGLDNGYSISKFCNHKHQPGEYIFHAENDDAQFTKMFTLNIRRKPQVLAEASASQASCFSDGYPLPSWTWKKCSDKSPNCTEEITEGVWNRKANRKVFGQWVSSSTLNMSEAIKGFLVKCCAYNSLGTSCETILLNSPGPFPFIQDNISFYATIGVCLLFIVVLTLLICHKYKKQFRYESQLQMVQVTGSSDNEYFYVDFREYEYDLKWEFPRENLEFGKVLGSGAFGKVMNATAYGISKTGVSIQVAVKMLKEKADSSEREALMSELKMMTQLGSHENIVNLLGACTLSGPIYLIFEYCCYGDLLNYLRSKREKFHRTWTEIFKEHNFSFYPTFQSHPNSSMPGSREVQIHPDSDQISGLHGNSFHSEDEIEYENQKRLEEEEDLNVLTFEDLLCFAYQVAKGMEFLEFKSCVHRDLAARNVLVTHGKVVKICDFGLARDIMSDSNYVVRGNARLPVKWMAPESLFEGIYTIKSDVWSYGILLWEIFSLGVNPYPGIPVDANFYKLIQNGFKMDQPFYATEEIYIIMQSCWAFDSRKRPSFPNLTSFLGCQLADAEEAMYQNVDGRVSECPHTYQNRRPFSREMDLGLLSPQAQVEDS
Chain of Mitogen-activated protein kinase 14 (Q16539 whole entry): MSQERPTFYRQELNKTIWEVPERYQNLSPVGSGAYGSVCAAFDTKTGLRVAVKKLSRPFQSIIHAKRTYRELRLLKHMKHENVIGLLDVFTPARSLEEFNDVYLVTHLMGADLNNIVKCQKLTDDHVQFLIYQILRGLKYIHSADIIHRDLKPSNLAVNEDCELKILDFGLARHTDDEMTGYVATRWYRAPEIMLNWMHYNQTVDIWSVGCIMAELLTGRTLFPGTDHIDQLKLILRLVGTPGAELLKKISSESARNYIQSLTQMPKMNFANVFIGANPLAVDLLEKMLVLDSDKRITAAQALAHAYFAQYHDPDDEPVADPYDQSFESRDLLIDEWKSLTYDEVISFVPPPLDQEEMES

CN1CCN(C(c2ccc(C(F)(F)F)cc2)c2cc(Cl)c3cccnc3c2O)CC1 (configuration not stated)
EC50 [1]: > 180 µM (inactive)
EC50 [2]: 0.666 µM (active)
EC50 [3]: 6.51 µM (active)
IC50 [4]: > 119 µM (inactive)
IC50 [5]: 105 µM (inactive)

NC(=O)c1c(NC(=O)c2cc3ccccc3o2)sc2c1CCC2
EC50 [6]: 1.7 µM (active)
IC50 [7]: 0.0552 µM (not active)
IC50 [8]: 23.5 µM (active)
EC50 [9]: > 67.5 µM (inactive)

O=C(NC(CCO)c1ccccc1)c1ccc(-c2ccncc2)cc1 (configuration not stated)
Ki [10]: > 5.01 µM (inactive)
Ki [11]: 0.316 µM (active)
Ki [12]: 0.316 µM (active)
Ki [13]: > 3.98 µM (inactive)
Ki [14]: 0.0316 µM (active)
Ki [15]: > 3.98 µM (inactive)
Ki [16]: > 2.51 µM (inactive)
Ki [17]: > 3.98 µM (inactive)
Ki [18]: > 3.98 µM (inactive)
Ki [19]: > 3.16 µM (inactive)
Ki [20]: > 3.16 µM (inactive)
Ki [21]: > 2.51 µM (inactive)
Ki [22]: > 3.16 µM (inactive)
Ki [23]: > 2.51 µM (inactive)
Ki [24]: > 1.58 µM (inactive)
Ki [25]: > 3.16 µM (inactive)
Ki [26]: > 3.98 µM (inactive)
Ki [27]: > 7.94 µM (inactive)
